Test results taken from patent US20150353495A1 (PORTOLA PHARMACEUTICALS, INC., priority 2010, published 2015).
Where a name gives a salt, the structure may show the parent alone.

How the values were obtained:
JAK2 = biological target: T1, JAK2 (Homo sapiens, UniProt O60674); experiment: Z'-LYTE kinase assay JAK2; format: biochemical
T1 construct: 5 μl of catalytic domain recombinant Kinase enzyme+Tyr peptide substrate (Invitrogen, CA); purchased Invitrogen
Procedure, shortened: (§1)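 In duplicate wells, each test molecule (1% final DMSO) is incubated with recombinant kinase catalytic domain, Tyr6 peptide substrate and ATP for one hour at room temperature; a site-specific protease is then added for another hour before fluorescence reading.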

JAK3 = biological target: T2, JAK3 (Homo sapiens, UniProt P52333); experiment: Z'-LYTE kinase assay JAK3; format: biochemical
T2 construct: 5 μl of catalytic domain recombinant Kinase enzyme+Tyr peptide substrate (Invitrogen, CA); purchased Invitrogen
Procedure, shortened: as §1

TYK2 = biological target: T3, TYK2 (Homo sapiens, UniProt P29597); experiment: Z'-LYTE kinase assay TYK2; format: biochemical
T3 construct: 5 μl of catalytic domain recombinant Kinase enzyme+Tyr peptide substrate (Invitrogen, CA); purchased Invitrogen
T3 sequence (P29597 897-1176 limits assumed): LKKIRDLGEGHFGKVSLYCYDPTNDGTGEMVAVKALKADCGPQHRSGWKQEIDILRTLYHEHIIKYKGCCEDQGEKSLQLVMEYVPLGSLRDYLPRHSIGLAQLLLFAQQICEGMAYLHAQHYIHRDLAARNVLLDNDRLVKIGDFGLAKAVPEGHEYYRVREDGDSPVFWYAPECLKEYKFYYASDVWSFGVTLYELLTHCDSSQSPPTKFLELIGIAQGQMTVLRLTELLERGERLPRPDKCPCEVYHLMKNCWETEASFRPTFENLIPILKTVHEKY
Procedure, shortened: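 IC50 derived by 4-parameter logistic fit of percent substrate phosphorylation relative to uninhibited wells. Tyr6 peptide phosphorylated by recombinant TYK2 catalytic domain for 1 h at room temperature (1% DMSO), cleaved by development protease 1 h, FRET emission ratio 445/520 nm.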

JAK1 = biological target: T4, JAK1 (Homo sapiens, UniProt P23458); experiment: Z'-LYTE kinase assay JAK1; format: biochemical
T4 construct: 5 μl of catalytic domain recombinant Kinase enzyme+Tyr peptide substrate (Invitrogen, CA); purchased Invitrogen
Procedure, shortened: as §1

[1] = system: JAK1/3 signaling to STAT6 in Ramos B cells; experiment: IL4 stimulation of JAK1/3 signaling to STAT6 in Ramos B cells (pSTAT6 Y641, FACS); format: cell-based; settings: Homo sapiens; for inhibition at 0.2 µM: 0.2 uM compound, read-out: IL-4/STAT6 in Ramos Percent Inhibition at 0.2 uM; for inhibition at 1 µM: 1.0 uM compound, read-out: IL-4/STAT6 in Ramos Percent Inhibition at 1.0 uM
Procedure, shortened: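 Phospho-STAT6 Y641 was measured by FACS using a PE-labelled antibody after fixation (2% paraformaldehyde) and methanol permeabilization. Before this, Ramos cells were exposed to compound for 1 h, then to 15 ng IL4 for 15 min.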

T4 sequence (P23458 875-1153 limits assumed): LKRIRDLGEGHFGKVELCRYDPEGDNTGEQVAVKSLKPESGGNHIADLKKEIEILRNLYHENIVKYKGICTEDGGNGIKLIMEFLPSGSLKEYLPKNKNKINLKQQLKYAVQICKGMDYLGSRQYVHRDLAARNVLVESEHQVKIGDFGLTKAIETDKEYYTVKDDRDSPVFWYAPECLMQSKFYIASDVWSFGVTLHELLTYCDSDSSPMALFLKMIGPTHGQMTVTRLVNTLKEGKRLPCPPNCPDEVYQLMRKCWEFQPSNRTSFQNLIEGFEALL
T2 sequence (P52333 822-1111 limits assumed): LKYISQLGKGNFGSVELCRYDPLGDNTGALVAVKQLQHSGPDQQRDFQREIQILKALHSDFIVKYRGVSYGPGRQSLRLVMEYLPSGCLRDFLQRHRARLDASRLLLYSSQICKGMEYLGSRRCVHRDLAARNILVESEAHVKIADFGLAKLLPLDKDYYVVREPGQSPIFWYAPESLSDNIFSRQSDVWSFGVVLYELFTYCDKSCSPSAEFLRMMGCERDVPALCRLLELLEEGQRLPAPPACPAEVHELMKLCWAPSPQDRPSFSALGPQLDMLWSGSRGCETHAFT
T1 sequence (O60674 849-1124 limits assumed): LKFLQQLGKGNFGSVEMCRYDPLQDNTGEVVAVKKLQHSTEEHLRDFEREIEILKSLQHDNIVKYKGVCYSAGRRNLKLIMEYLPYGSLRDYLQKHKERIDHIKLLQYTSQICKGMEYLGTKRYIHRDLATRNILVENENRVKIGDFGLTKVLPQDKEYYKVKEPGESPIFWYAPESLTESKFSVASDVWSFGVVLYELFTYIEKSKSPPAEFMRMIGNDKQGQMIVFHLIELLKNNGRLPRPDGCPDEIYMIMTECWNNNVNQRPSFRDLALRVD

| Compound | IC50 (JAK2) | IC50 (JAK3) | IC50 (TYK2) | IC50 (JAK1) | inhibition at 0.2 µM [1] | inhibition at 1 µM [1] |
| --- | --- | --- | --- | --- | --- | --- |
| NC(=O)c1cnc(Nc2ccc(C3CCNCC3)cc2)cc1NCc1cccc(F)c1 [Example 70, 4-(3-fluorobenzylamino)-6-(4-(piperidin-4-yl)phenylamino)nicotinamide] | 10 to 100 nM | 1 to 10 nM | 100 to 1000 nM | 100 to 1000 nM | 23% | 45% |
| NC(=O)c1cnc(Nc2ccc(N3CCCCC3=O)cc2)cc1NCc1ccccc1F [Example 71, 4-(2-fluorobenzylamino)-6-(4-(2-oxopiperidin-1-yl)phenylamino)nicotinamide] | 100 to 1000 nM | 1 to 10 nM | 100 to 1000 nM | 100 to 1000 nM | 22% | 37% |
| NC(=O)c1cnc(Nc2cccc(OCCN3CCCC3)c2)cc1NCc1ccccc1F [Example 72, 4-(2-fluorobenzylamino)-6-(3-(2-(pyrrolidin-1-yl)ethoxy)phenylamino)nicotinamide] | 100 to 1000 nM | 1 to 10 nM | 100 to 1000 nM | 100 to 1000 nM | 27% | 54% |
| NC(=O)c1cnc(Nc2ccc(N3CCOCC3)cc2)cc1NCc1ccccc1F [Example 73, 4-(2-fluorobenzylamino)-6-(4-morpholinophenylamino)nicotinamide] | 10 to 100 nM | 1 to 10 nM | 100 to 1000 nM | 100 to 1000 nM | 23% | 53% |
| NC(=O)c1cnc(Nc2ccc(N3CCCCC3)cc2)cc1NCc1ccccc1F [Example 74, 4-(2-fluorobenzylamino)-6-(4-(piperidin-1-yl)phenylamino)nicotinamide] | 100 to 1000 nM | 10 to 100 nM | 100 to 1000 nM | > 1000 nM | 21% | 43% |
| NC(=O)c1cnc(Nc2ccc(N3CCCCC3)cc2)cc1N[C@H](CO)c1ccccc1 [Example 75, (S)-4-(2-hydroxy-1-phenylethylamino)-6-(4-(piperidin-1-yl)phenylamino)nicotinamide] | > 1000 nM | 10 to 100 nM | > 1000 nM | > 1000 nM | 11% | 26% |
| C[N+]1(C)CCC(c2ccc(Nc3cc(NCc4cccc(F)c4)c(C(N)=O)cn3)cc2)CC1 [Example 78, 4-(4-(5-carbamoyl-4-(3-fluorobenzylamino)pyridin-2-ylamino)phenyl)-1,1-dimethylpiperidinium formate] | 10 to 100 nM | 1 to 10 nM | 100 to 1000 nM | 100 to 1000 nM | – | 14% |
| NC(=O)c1cnc(Nc2ccc(OCC(=O)N3CCOCC3)cc2)cc1NCc1ccccc1 [Example 80, 4-(benzylamino)-6-(4-(2-morpholino-2-oxoethoxy)phenylamino)nicotinamide] | 100 to 1000 nM | 10 to 100 nM | > 1000 nM | > 1000 nM | 23% | 43% |
| NC(=O)c1cnc(Nc2ccc(OCCN3CCCCC3)cc2)cc1NCc1ccccc1 [Example 81, 4-(benzylamino)-6-(4-(2-(piperidin-1-yl)ethoxy)phenylamino)nicotinamide] | 100 to 1000 nM | 10 to 100 nM | > 1000 nM | > 1000 nM | 29% | 48% |
| CN(C)C(=O)c1ccc(Nc2cc(NCc3cc(F)ccc3F)c(C(N)=O)cn2)cc1 [Example 92, 4-(2,5-difluorobenzylamino)-6-(4-(dimethylcarbamoyl)phenylamino)nicotinamide] | 10 to 100 nM | 1 to 10 nM | 100 to 1000 nM | 100 to 1000 nM | 41% | 67% |
| NC(=O)c1cnc(Nc2ccc(N3CCCCC3=O)cc2)cc1NCc1cc(F)ccc1F [Example 94, 4-(2,5-difluorobenzylamino)-6-(4-(2-oxopiperidin-1-yl)phenylamino)nicotinamide] | 10 to 100 nM | 1 to 10 nM | 100 to 1000 nM | 100 to 1000 nM | 35% | 62% |
| NC(=O)c1cnc(Nc2ccc(C3CCNCC3)cc2)cc1NCc1ccccc1F [Example 106, 4-(2-fluorobenzylamino)-6-(4-(piperidin-4-yl)phenylamino)nicotinamide] | 100 to 1000 nM | 1 to 10 nM | 100 to 1000 nM | 100 to 1000 nM | 28% | 49% |

Continued, in another order:

| IC50 (JAK2) | IC50 (JAK3) | IC50 (TYK2) | IC50 (JAK1) | Compound | inhibition at 0.2 µM [1] | inhibition at 1 µM [1] |
| --- | --- | --- | --- | --- | --- | --- |
| 100 to 1000 nM | 1 to 10 nM | 100 to 1000 nM | 100 to 1000 nM | NC(=O)c1cnc(Nc2ccc(C3CCN(C4CCCC4)CC3)cc2)cc1NCc1ccccc1F [Example 109, 6-(4-(1-cyclopentylpiperidin-4-yl)phenylamino)-4-(2-fluorobenzylamino)nicotinamide] | 23% | 60% |
| 100 to 1000 nM | 10 to 100 nM | 100 to 1000 nM | 100 to 1000 nM | CC(=O)N1CCC(c2ccc(Nc3cc(NCc4ccccc4F)c(C(N)=O)cn3)cc2)CC1 [Example 115, 6-(4-(1-acetylpiperidin-4-yl)phenylamino)-4-(2-fluorobenzylamino)nicotinamide] | 31% | 64% |
| 10 to 100 nM | 1 to 10 nM | 100 to 1000 nM | 100 to 1000 nM | COCC(=O)N1CCC(c2ccc(Nc3cc(NCc4ccccc4F)c(C(N)=O)cn3)cc2)CC1 [Example 116, 4-(2-fluorobenzylamino)-6-(4-(1-(2-methoxyacetyl)piperidin-4-yl)phenylamino)nicotinamide] | 25% | 43% |
| 100 to 1000 nM | 1 to 10 nM | 100 to 1000 nM | 100 to 1000 nM | N#CCC(=O)N1CCC(c2ccc(Nc3cc(NCc4ccccc4F)c(C(N)=O)cn3)cc2)CC1 [Example 117, 6-(4-(1-(2-cyanoacetyl)piperidin-4-yl)phenylamino)-4-(2-fluorobenzylamino)nicotinamide] | 43% | 67% |
| 100 to 1000 nM | 1 to 10 nM | 10 to 100 nM | 100 to 1000 nM | CC(=O)N1CCN(c2ccc(Nc3cc(NCc4cccs4)c(C(N)=O)cn3)cc2)CC1 [Example 122, 6-(4-(4-acetylpiperazin-1-yl)phenylamino)-4-(thiophen-2-ylmethylamino)nicotinamide] | 34% | 57% |
| 100 to 1000 nM | 1 to 10 nM | > 1000 nM | 100 to 1000 nM | NC(=O)c1cnc(Nc2cccc(OCCN3CCOCC3)c2)cc1NCc1cccc(F)c1 [Example 228] | 24% | 48% |
| 100 to 1000 nM | 1 to 10 nM | 100 to 1000 nM | 100 to 1000 nM | CC(=O)N1CCN(c2ccc(Nc3cc(NCc4cccnc4)c(C(N)=O)cn3)cc2)CC1 [Example 233] | 17% | 33% |
| 10 to 100 nM | 1 to 10 nM | 10 to 100 nM | 100 to 1000 nM | CC(=O)N1CCN(c2ccc(Nc3cc(NCC4CCCC4)c(C(N)=O)cn3)cc2)CC1 [Example 245, 6-(4-(4-acetylpiperazin-1-yl)phenylamino)-4-(cyclopentylmethylamino)nicotinamide] | 14% | 38% |
| 100 to 1000 nM | 10 to 100 nM | > 1000 nM | 100 to 1000 nM | CNC(=O)c1cccc(Nc2cc(NCc3ccccc3)c(C(N)=O)cn2)c1 [Example 246, 4-(benzylamino)-6-(3-(methylcarbamoyl)phenylamino)nicotinamide] | 6% | 11% |
| 100 to 1000 nM | 10 to 100 nM | 100 to 1000 nM | 100 to 1000 nM | CN(C)C(=O)c1cccc(Nc2cc(NCc3ccccc3)c(C(N)=O)cn2)c1 [Example 247, 4-(benzylamino)-6-(3-(dimethylcarbamoyl)phenylamino)nicotinamide] | 6% | 24% |
| 100 to 1000 nM | 1 to 10 nM | 100 to 1000 nM | 100 to 1000 nM | CN(C)C(=O)c1ccc(Nc2cc(NCc3ccccc3)c(C(N)=O)cn2)cc1 [Example 248, 4-(benzylamino)-6-(4-(dimethylcarbamoyl)phenylamino)nicotinamide] | 24% | 50% |
| 100 to 1000 nM | 10 to 100 nM | > 1000 nM | > 1000 nM | NC(=O)c1cnc(Nc2ccc(N3CCOCC3)c(Cl)c2)cc1NCc1ccccc1 [Example 251, 4-(benzylamino)-6-(3-chloro-4-morpholinophenylamino)nicotinamide] | 17% | 51% |
